These results are taken from PubChem BioAssay (NCI).

Test systems include T-47D breast; U251 CNS; ACHN renal; MOLT-4 leukemia; NCI-H226 lung; K-562 leukemia; OVCAR-3 ovarian; OVCAR-5 ovarian; SF-268 CNS; SR leukemia.
What all share (test): NCI anticancer screen, dose series, 48 h

Each structure is given as a SMILES string.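 Briefly, cells in 96-well plates were exposed to five compound concentrations for 48 h, and endpoints were estimated by linear interpolation. GI50 = concentration required for 50% inhibition of growth. The concentration for full growth arrest is given as TGI.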 A value given as a limit tells only on which side of the number the result lay.

For the compound `S=c1nc(-c2ccccc2)oc(=NC2CCCCC2)n1C1CCCCC1`, the GI50 in the experiment on T-47D breast was 3850 nM; in the experiment with U251 CNS it was 3.85 µM; in the experiment on ACHN renal it was 4.14 µM; with MOLT-4 leukemia, 1540 nM; with NCI-H226 lung, 17.5 µM; in the experiment with K-562 leukemia, 5250 nM. Further, the GI50 was 3540 nM in the experiment on OVCAR-3 ovarian, 8.54 µM with OVCAR-5 ovarian and 4.72 µM in the experiment with SF-268 CNS. The TGI in the experiment on T-47D breast was 21.4 µM; in the experiment with U251 CNS it was 15.2 µM; with ACHN renal, 14.2 µM; in the experiment with MOLT-4 leukemia, 6.01 µM; in the experiment on NCI-H226 lung, 37.9 µM; with K-562 leukemia, > 100 µM. Moreover, the TGI came to 11.3 µM in the experiment on OVCAR-3 ovarian, 30.3 µM in the experiment on OVCAR-5 ovarian and 17.6 µM with SF-268 CNS.
Turning to `O=C(/C=C/c1ccc(C(F)(F)F)cc1)c1ccc(Nc2nc(NCCO)nc(NCCO)n2)cc1`, the GI50 was 2510 nM with T-47D breast; 2300 nM with SR leukemia; 4.38 µM in the experiment on ACHN renal; 2680 nM in the experiment with MOLT-4 leukemia; 2.62 µM with NCI-H226 lung; 2840 nM in the experiment with K-562 leukemia. Besides, the GI50 in the experiment with OVCAR-3 ovarian is 2020 nM; with OVCAR-5 ovarian, 2.85 µM; with SF-268 CNS, 2.8 µM. Moreover, the TGI amounted to 11.8 µM in the experiment with T-47D breast; 7.11 µM with SR leukemia; 15.6 µM in the experiment on ACHN renal; 10.7 µM in the experiment on MOLT-4 leukemia; 9.65 µM in the experiment on NCI-H226 lung; 8.89 µM in the experiment on K-562 leukemia. Also, the figures for the TGI in the experiment on OVCAR-3 ovarian, with OVCAR-5 ovarian and in the experiment on SF-268 CNS were 4.19 µM, 14.1 µM and 11.5 µM, respectively.
As for `CCOC(=O)c1sc(-c2ccc(OS(=O)(=O)c3cccs3)c(C=O)c2)nc1C`, the GI50 with T-47D breast was 1210 nM; with U251 CNS it was 1.19 µM; in the experiment on SR leukemia, 1820 nM; with ACHN renal, 2.06 µM; with MOLT-4 leukemia it was 1470 nM; with NCI-H226 lung, 1.88 µM. In addition, the GI50 was 574 nM with K-562 leukemia and 1.91 µM with SF-268 CNS. Moreover, the TGI was 5.02 µM with T-47D breast; 2.83 µM in the experiment with U251 CNS; > 100 µM in the experiment on SR leukemia; 5.88 µM in the experiment on ACHN renal; 4.02 µM in the experiment with MOLT-4 leukemia; 4.93 µM in the experiment with NCI-H226 lung. Besides, the TGI in the experiment on K-562 leukemia is > 100 µM; with SF-268 CNS it was 4.42 µM.
In the case of `C(=N\Nc1nnc2c(n1)[nH]c1ccccc12)/c1cccnc1`, the TGI in the experiment with T-47D breast, in the experiment on U251 CNS, with ACHN renal, in the experiment on MOLT-4 leukemia, in the experiment on NCI-H226 lung and in the experiment on K-562 leukemia was > 100 µM each time. Besides, the TGI in the experiment with OVCAR-3 ovarian, in the experiment with OVCAR-5 ovarian and with SF-268 CNS was > 100 µM throughout.
Consider `CCN(CC)CCN1C(=O)c2c(c(C)c3c(oc4cc(O)ccc43)c2C)C1=O`, for which the GI50 in the experiment on T-47D breast was 2280 nM; in the experiment with SR leukemia it was 1890 nM; in the experiment with ACHN renal, 1.56 µM; in the experiment with NCI-H226 lung, 2.06 µM; in the experiment with K-562 leukemia, 2300 nM; in the experiment on OVCAR-3 ovarian, 1780 nM. In addition, the GI50 was 1.66 µM with OVCAR-5 ovarian and 1.74 µM in the experiment with SF-268 CNS. Moreover, the TGI in the experiment on T-47D breast was 6.44 µM; in the experiment with SR leukemia, > 100 µM; in the experiment with ACHN renal it was 2.89 µM; in the experiment on NCI-H226 lung it was 4.38 µM; with K-562 leukemia it was > 100 µM; in the experiment with OVCAR-3 ovarian, 3.34 µM. For the same compound, the TGI in the experiment on OVCAR-5 ovarian was 3.04 µM; in the experiment on SF-268 CNS it was 3.78 µM.
In the case of `O=C(c1ccccc1)C1C(C(=O)c2ccccc2)N1Cc1ccccc1` (stereo not drawn), the TGI is 49.8 µM with T-47D breast; > 100 µM in the experiment with U251 CNS; > 100 µM with ACHN renal; > 100 µM in the experiment on MOLT-4 leukemia; > 100 µM in the experiment with NCI-H226 lung; > 100 µM in the experiment on K-562 leukemia. The TGI was 99.2 µM with OVCAR-3 ovarian, > 100 µM with OVCAR-5 ovarian and > 100 µM in the experiment with SF-268 CNS.
Regarding `O=c1[nH]cc(CS(=O)(=O)Cc2c[nH]c(=O)[nH]c2=O)c(=O)[nH]1`, the TGI with T-47D breast, in the experiment with U251 CNS, with SR leukemia, in the experiment on ACHN renal, in the experiment with MOLT-4 leukemia and in the experiment on NCI-H226 lung was > 100 µM each time. The TGI in the experiment with K-562 leukemia, with OVCAR-5 ovarian and in the experiment with SF-268 CNS was > 100 µM each time.
With `COc1ccccc1/C=C\c1cnnc2ccccc12`, the TGI in the experiment on T-47D breast, in the experiment with U251 CNS, with ACHN renal, in the experiment on MOLT-4 leukemia, in the experiment with NCI-H226 lung and in the experiment with K-562 leukemia was > 10 µM throughout. Also, the TGI with OVCAR-3 ovarian, with OVCAR-5 ovarian and in the experiment with SF-268 CNS was > 10 µM in each case.
For the compound `CCOC1OCCCC1Br` (stereo not drawn), the TGI in the experiment on T-47D breast, in the experiment with SR leukemia, in the experiment with ACHN renal, in the experiment on MOLT-4 leukemia, in the experiment on NCI-H226 lung and in the experiment on K-562 leukemia was > 100 µM in each case. Besides, the TGI in the experiment with OVCAR-3 ovarian, with OVCAR-5 ovarian and in the experiment with SF-268 CNS was > 100 µM in each case.
Regarding `C=C(C=O)C1CC(=O)C(C(=O)OC)[C@@H]2O[C@@](C)(CC2=O)C[C@@H]2OC(=O)[C@]3(O[C@@H]23)[C@@H](C(=O)OC)C1` (stereo partly drawn), the GI50 in the experiment with T-47D breast is 33700 nM; in the experiment with U251 CNS, 14.6 µM; in the experiment with SR leukemia, 2630 nM; in the experiment on MOLT-4 leukemia, 4200 nM; with NCI-H226 lung, 24.9 µM; in the experiment on K-562 leukemia it was 20100 nM. The GI50 with OVCAR-3 ovarian is 12800 nM; in the experiment with OVCAR-5 ovarian it was 23.1 µM; with SF-268 CNS it was 21.5 µM. Further, the TGI in the experiment with T-47D breast is > 100 µM; in the experiment on U251 CNS it was 39.8 µM; in the experiment with SR leukemia it was 7.96 µM; with MOLT-4 leukemia, > 100 µM; in the experiment with NCI-H226 lung it was > 100 µM; in the experiment with K-562 leukemia, > 100 µM. The TGI in the experiment on OVCAR-3 ovarian came to 32.8 µM; with OVCAR-5 ovarian it was 51.2 µM; in the experiment with SF-268 CNS, 65.9 µM.
Turning to `CC(CN=C(CC(=O)c1ccc(Br)cc1)c1ccccc1)N=C(CC(=O)c1ccc(Br)cc1)c1ccccc1` (stereo not drawn), the GI50 is 3090 nM in the experiment on T-47D breast; > 100 µM with U251 CNS; 48 µM in the experiment with ACHN renal; 7950 nM in the experiment with MOLT-4 leukemia; 67.3 µM in the experiment on NCI-H226 lung; > 100000 nM in the experiment with K-562 leukemia. Besides, the GI50 with OVCAR-5 ovarian was > 100 µM; in the experiment on SF-268 CNS it was 29.9 µM. The TGI in the experiment with T-47D breast, in the experiment with U251 CNS, in the experiment on ACHN renal, in the experiment on MOLT-4 leukemia, in the experiment on NCI-H226 lung and in the experiment with K-562 leukemia was > 100 µM throughout. Further, the values for the TGI in the experiment with OVCAR-3 ovarian, in the experiment with OVCAR-5 ovarian and in the experiment with SF-268 CNS were 14.7 µM, > 100 µM and > 100 µM, respectively.
